Measured values from publication PMC3022637, “The modulation of TRPM7 currents by nafamostat mesilate depends directly upon extracellular concentrations of divalent cations” (Molecular Brain, 2010).
One block for each molecule: values may come before it.

How the values were obtained:
[1] = biological target: T1, TRPM7 current in cultured mouse hippocampal neurons (Mus musculus, UniProt Q923J1); test: Whole-cell voltage clamp of TRPM7 currents in cultured hippocampal neurons (low divalent cation-induced or compound-activated); assay type: cell-based
T1 construct: supports the substantial involvement of endogenous TRPM7 channels in the responses of neurons; endogenous in cells; host or cells: primary cultured hippocampal neurons from embryonic Swiss mice

[2] = test system: human TRPM7 channels; design: method as in PMID 18719395; settings: pH 7.4 to 4.0; cited from earlier work
[3] = 200 μM, current evoked by 0.1 mM Ca2+ and 0.1 mM Mg2+

T1 sequence (Q923J1 whole entry): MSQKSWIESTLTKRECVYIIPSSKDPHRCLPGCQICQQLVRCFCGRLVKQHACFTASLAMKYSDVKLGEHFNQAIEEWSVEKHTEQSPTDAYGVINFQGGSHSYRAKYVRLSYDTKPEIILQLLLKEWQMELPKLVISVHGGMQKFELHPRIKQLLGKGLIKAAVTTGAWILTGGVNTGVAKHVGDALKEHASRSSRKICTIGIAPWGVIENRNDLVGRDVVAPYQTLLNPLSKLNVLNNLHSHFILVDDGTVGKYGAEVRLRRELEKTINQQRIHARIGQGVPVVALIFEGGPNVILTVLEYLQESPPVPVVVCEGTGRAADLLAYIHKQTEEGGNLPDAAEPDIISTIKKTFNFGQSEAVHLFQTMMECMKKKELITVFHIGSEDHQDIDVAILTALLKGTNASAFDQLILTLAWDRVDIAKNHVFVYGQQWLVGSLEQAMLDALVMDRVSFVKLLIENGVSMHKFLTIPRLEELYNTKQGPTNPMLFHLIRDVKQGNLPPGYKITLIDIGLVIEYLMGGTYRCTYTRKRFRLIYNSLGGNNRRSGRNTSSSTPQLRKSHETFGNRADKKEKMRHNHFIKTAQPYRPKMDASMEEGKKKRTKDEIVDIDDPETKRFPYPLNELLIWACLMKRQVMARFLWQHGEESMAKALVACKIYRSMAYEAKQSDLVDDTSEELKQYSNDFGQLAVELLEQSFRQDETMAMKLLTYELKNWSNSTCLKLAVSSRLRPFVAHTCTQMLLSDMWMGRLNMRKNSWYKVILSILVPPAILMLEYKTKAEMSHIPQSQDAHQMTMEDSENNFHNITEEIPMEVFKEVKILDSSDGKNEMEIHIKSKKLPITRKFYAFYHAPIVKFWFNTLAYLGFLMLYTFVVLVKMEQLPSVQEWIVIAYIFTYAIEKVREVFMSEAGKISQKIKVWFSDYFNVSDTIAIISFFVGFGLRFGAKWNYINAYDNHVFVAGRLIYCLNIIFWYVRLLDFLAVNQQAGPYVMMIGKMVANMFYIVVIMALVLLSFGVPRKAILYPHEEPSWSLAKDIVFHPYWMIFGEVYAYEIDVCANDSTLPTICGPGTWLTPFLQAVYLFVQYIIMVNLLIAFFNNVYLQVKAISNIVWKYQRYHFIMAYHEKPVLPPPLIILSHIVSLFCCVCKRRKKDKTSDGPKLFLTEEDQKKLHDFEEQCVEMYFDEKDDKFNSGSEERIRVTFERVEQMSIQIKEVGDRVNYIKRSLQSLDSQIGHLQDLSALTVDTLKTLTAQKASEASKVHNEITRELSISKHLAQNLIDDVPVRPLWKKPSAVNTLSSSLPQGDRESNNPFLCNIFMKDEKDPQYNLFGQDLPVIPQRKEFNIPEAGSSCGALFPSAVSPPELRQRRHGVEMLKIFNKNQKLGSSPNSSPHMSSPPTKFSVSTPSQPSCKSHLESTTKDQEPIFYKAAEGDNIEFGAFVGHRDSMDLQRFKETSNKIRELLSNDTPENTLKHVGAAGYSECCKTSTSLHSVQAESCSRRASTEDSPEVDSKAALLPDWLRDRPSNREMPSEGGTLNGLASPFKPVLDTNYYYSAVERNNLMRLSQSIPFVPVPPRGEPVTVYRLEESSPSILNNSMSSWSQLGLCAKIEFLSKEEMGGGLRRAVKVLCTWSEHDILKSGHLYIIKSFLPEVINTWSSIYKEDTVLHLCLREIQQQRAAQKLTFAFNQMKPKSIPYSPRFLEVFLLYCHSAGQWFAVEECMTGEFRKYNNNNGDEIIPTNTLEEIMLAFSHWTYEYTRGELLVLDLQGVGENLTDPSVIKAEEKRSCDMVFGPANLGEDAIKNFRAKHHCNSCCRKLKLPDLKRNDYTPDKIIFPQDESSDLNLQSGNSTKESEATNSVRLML

potentiation of TRPM7 current, pre-exposed ([1]; 200 μM): failed to potentiate | inhibition at 200 µM ([1]; 200 μM, read-out: inhibition of TRPM7 current, co-applied): 45 ± 3%
Compound: CCOC(=O)c1ccc(OC(=O)CCCCCNC(=N)N)cc1 [Gabexate, gabexate]

Compound: Cn1cc(NC(=O)c2cc(NC(=O)CN=C(N)N)cn2C)cc1C(=O)NCCC(=N)N [netropsin]
potentiation of TRPM7 current, pre-exposed ([1]; 200 μM): nor potentiated | block of TRPM7 current, co-applied [1, 3]: neither blocked

Compound: [Ca+2] [Ca^2+]
reduction of IC50 for monovalent cation block on decreasing pH from 7.4 to 4.0 [2]: 410 fold

Compound: [Gd+3] [Gd^3+]
inhibition of TRPM7 current activated by NM ([1]; 10 μM): 97 ± 2%

I compound / I control, pre-applied ([1]; 200 μM, normalized current): 85 ± 5% | block of TRPM7 current, co-applied ([1]; 1 mM (p-GBA up to 1 mM), low divalent-evoked current): only partially inhibited | I compound / I control, co-applied ([1]; 1 mM, normalized current): 69 ± 29% | potentiation of TRPM7 current, pre-applied ([1]; concentration not given): no potentiation
Compound: N=C(N)c1ccc2cc(O)ccc2c1 [AN, 6-amidino-2-naphthol]

Compound: N=C(N)NCCCCCCCCCCNC(=N)N [synthalin]
potentiation of TRPM7 current, pre-exposed ([1]; 200 μM): did not block or potentiate | block of TRPM7 current, co-applied [1, 3]: did not block or potentiate
